Converted amounts (≈) assume the structure as drawn.
Legend:
[1] = test system: Escherichia coli (E. coli) BAS849; assay: Antibacterial activity, microbroth dilution MIC (Table 1); format: cell-based; conditions: microbroth dilution, super sensitive Gram-negative E. coli BAS849, read-out: MIC, BAS849
How it was run: (§1)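 Growth inhibition by microbroth dilution. MIC = lowest μg/mL with no visible growth. Strain 25922 is the control Gram-negative; BAS849 is hypersensitive.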

[2] = test system: Staphylococcus aureus (S. aureus) 29213; assay: as above; format: cell-based; conditions: microbroth dilution, Gram-positive S. aureus 29213, read-out: MIC, 29213
How it was run: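 Microbroth dilution was used. MIC, in μg/mL, is the lowest drug concentration preventing macroscopically visible growth under the test conditions.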

K. pneumoniae MXX1232 = assay: Antibacterial activity, MIC, resistant strain (Table 4); format: cell-based; conditions: Klebsiella pneumoniae, MXX1232; resistant K. pneumoniae MMX1232, multi-drug resistant clinical isolate; read-out: MIC, MMX1232
How it was run: (§2)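 MIC (μg/mL) by microbroth dilution, taken as the lowest drug concentration preventing macroscopically visible growth. MXX strains are multi-drug resistant clinical isolates.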

A. baumannii MXX2240 = assay: as above; format: cell-based; conditions: Acinetobacter baumannii, MXX2240; resistant A. baumannii MMX2240, multi-drug resistant clinical isolate; read-out: MIC, MMX2240
How it was run: as §2

[3] = test system: Klebsiella pneumoniae (K. pneumoniae) 35657; assay: Antibacterial activity, MIC (Table 4); format: cell-based; conditions: K. pneumoniae 35657, read-out: MIC, 35657
How it was run: as §2

[4] = test system: Acinetobacter baumannii (A. baumannii) BAA747; assay: Antibacterial activity, MIC (Table 4); format: cell-based; conditions: A. baumannii BAA747, read-out: MIC, BAA747
How it was run: as §2

E. coli 25922 = assay: Antibacterial activity, microbroth dilution MIC (Table 1); format: cell-based, Escherichia coli; conditions: Escherichia coli; microbroth dilution; control Gram-negative E. coli 25922 strain; read-out: MIC, 25922
How it was run: as §1

[5] = test system: Moraxella catarrhalis (M. catarrhalis) 25238; assay: Antibacterial activity, MIC (Table 7); format: cell-based
Source text: (§3) The antibacterial activity from a microbroth dilution method may be presented as the minimum inhibitory concentration (MIC in μg/mL). The MIC value is the lowest concentration of drug which prevents macroscopically visible growth under test conditions.
(§4) Antibacterial activity of test compounds against the Gram-negative bacteria Haemophilus influenzae (H. influenzae) 49247 is shown in Table 6, Moraxella catarrhalis (M. catarrhalis) 25238 is shown in Table 7 and Neisseria meningitidis (N. meningitidis) 13090 is shown in Table 8.

[6] = test system: Haemophilus influenzae (H. influenzae) 49247; assay: Antibacterial activity, MIC (Table 6); format: cell-based
Source text: as §3, §4

[7] = test system: Pseudomonas aeruginosa (P. aeruginosa) 27853; assay: Antibacterial activity, MIC (Table 5); format: cell-based; conditions: P. aeruginosa 27853, read-out: MIC, 27853
How it was run: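 Values are MICs in μg/mL, read as the lowest concentration at which no growth is visible by eye. They were determined by a microbroth dilution method.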

E. coli ELZ4251 = assay: Antibacterial activity, MIC, multi-drug resistant clinical isolate (Table 3); format: cell-based; conditions: Escherichia coli
How it was run: (§5)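 Compounds were serially diluted in broth microdilution format and growth was scored visually; the MIC is the lowest concentration at which no macroscopically visible growth occurred, expressed in μg/mL.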

E. coli ELZ4000 = assay: as above; format: cell-based; conditions: Escherichia coli, ELZ4000, read-out: MIC ELZ4000
How it was run: as §5

[8] = test system: Neisseria meningitidis (N. meningitidis) 13090; assay: Antibacterial activity, MIC (Table 8); format: cell-based
How it was run: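 Compounds are serially diluted in microbroth. Bacteria are then grown under the test conditions, and growth is inspected macroscopically. The MIC is recorded in μg/mL as the lowest concentration without visible growth.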

E. coli LZ3111 = assay: Antibacterial activity, MIC, quinolone resistant strain (Table 2); format: cell-based; conditions: Escherichia coli, LZ3111, read-out: MIC LZ3111
How it was run: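 MIC values (μg/mL) came from a microbroth dilution assay, scored as the lowest drug concentration at which no growth was visible by eye.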

Structure (SMILES)	MIC [1]	MIC [2]	MIC (K. pneumoniae MXX1232)	MIC (A. baumannii MXX2240)	MIC [3]	MIC [4]	MIC (E. coli 25922)	MIC [5]	MIC [6]	MIC [7]	MIC (E. coli ELZ4251)	MIC (E. coli ELZ4000)	MIC [8]	MIC (E. coli LZ3111)
CCc1c(-c2ccc3c(c2)cc(CN(C)C)n3C)[nH]c(=O)c(C(=O)O)c1O [Cpd 166, 6-(2-((dimethylamino)methyl)-1-methyl-1H-indol-5-yl)-5-ethyl-4-hydroxy-2-oxo-1,2-dihydropyridine-3-carboxylic acid]	< 1 µg/mL	3.5 to 12.5 µg/mL (≈ 9.47 to 33.8 µM)	12.5 to 150 µg/mL (≈ 33.8 to 406 µM)	1 to 3.5 µg/mL (≈ 2.71 to 9.47 µM)	< 1 µg/mL	< 1 µg/mL	< 1 µg/mL	< 1 µg/mL	< 1 µg/mL	3.5 to 12.5 µg/mL (≈ 9.47 to 33.8 µM)	3.5 to 12.5 µg/mL (≈ 9.47 to 33.8 µM)	12.5 to 150 µg/mL (≈ 33.8 to 406 µM)	< 1 µg/mL	3.5 to 12.5 µg/mL (≈ 9.47 to 33.8 µM)
CCc1c(-c2ccc3c(c2)cc(CN(CC)CC)n3C)[nH]c(=O)c(C(=O)O)c1O [Cpd 167, 6-(2-((diethylamino)methyl)-1-methyl-1H-indol-5-yl)-5-ethyl-4-hydroxy-2-oxo-1,2-dihydropyridine-3-carboxylic acid]	< 1 µg/mL	12.5 to 150 µg/mL (≈ 31.4 to 377 µM)	12.5 to 150 µg/mL (≈ 31.4 to 377 µM)	3.5 to 12.5 µg/mL (≈ 8.81 to 31.4 µM)	1 to 3.5 µg/mL (≈ 2.52 to 8.81 µM)	1 to 3.5 µg/mL (≈ 2.52 to 8.81 µM)	< 1 µg/mL	< 1 µg/mL	< 1 µg/mL	12.5 to 150 µg/mL (≈ 31.4 to 377 µM)	3.5 to 12.5 µg/mL (≈ 8.81 to 31.4 µM)	12.5 to 150 µg/mL (≈ 31.4 to 377 µM)	< 1 µg/mL	3.5 to 12.5 µg/mL (≈ 8.81 to 31.4 µM)
CCc1c(-c2ccc3c(c2)cc(CN2CCOCC2)n3C)[nH]c(=O)c(C(=O)O)c1O [Cpd 168, 5-ethyl-4-hydroxy-6-(1-methyl-2-(morpholinomethyl)-1H-indol-5-yl)-2-oxo-1,2-dihydropyridine-3-carboxylic acid]	< 1 µg/mL	1 to 3.5 µg/mL (≈ 2.43 to 8.51 µM)	12.5 to 150 µg/mL (≈ 30.4 to 365 µM)	3.5 to 12.5 µg/mL (≈ 8.51 to 30.4 µM)	1 to 3.5 µg/mL (≈ 2.43 to 8.51 µM)	1 to 3.5 µg/mL (≈ 2.43 to 8.51 µM)	1 to 3.5 µg/mL (≈ 2.43 to 8.51 µM)	< 1 µg/mL	< 1 µg/mL	12.5 to 150 µg/mL (≈ 30.4 to 365 µM)	12.5 to 150 µg/mL (≈ 30.4 to 365 µM)	12.5 to 150 µg/mL (≈ 30.4 to 365 µM)	< 1 µg/mL	3.5 to 12.5 µg/mL (≈ 8.51 to 30.4 µM)
CCc1c(-c2ccc3c(c2)cc(CN2CCN(C)CC2)n3C)[nH]c(=O)c(C(=O)O)c1O [Cpd 169, 5-ethyl-4-hydroxy-6-(1-methyl-2-((4-methylpiperazin-1-yl)methyl)-1H-indol-5-yl)-2-oxo-1,2-dihydropyridine-3-carboxylic acid]	< 1 µg/mL	3.5 to 12.5 µg/mL (≈ 8.24 to 29.4 µM)	12.5 to 150 µg/mL (≈ 29.4 to 353 µM)	12.5 to 150 µg/mL (≈ 29.4 to 353 µM)	1 to 3.5 µg/mL (≈ 2.36 to 8.24 µM)	1 to 3.5 µg/mL (≈ 2.36 to 8.24 µM)	1 to 3.5 µg/mL (≈ 2.36 to 8.24 µM)	< 1 µg/mL	1 to 3.5 µg/mL (≈ 2.36 to 8.24 µM)	12.5 to 150 µg/mL (≈ 29.4 to 353 µM)	12.5 to 150 µg/mL (≈ 29.4 to 353 µM)	12.5 to 150 µg/mL (≈ 29.4 to 353 µM)	< 1 µg/mL	3.5 to 12.5 µg/mL (≈ 8.24 to 29.4 µM)
CCc1c(-c2ccc3c(c2)cc(CN2CCNCC2)n3C)[nH]c(=O)c(C(=O)O)c1O [Cpd 171, 5-ethyl-4-hydroxy-6-(1-methyl-2-(piperazin-1-ylmethyl)-1H-indol-5-yl)-2-oxo-1,2-dihydropyridine-3-carboxylic acid]	< 1 µg/mL	12.5 to 150 µg/mL (≈ 30.5 to 365 µM)	12.5 to 150 µg/mL (≈ 30.5 to 365 µM)	12.5 to 150 µg/mL (≈ 30.5 to 365 µM)	1 to 3.5 µg/mL (≈ 2.44 to 8.53 µM)	12.5 to 150 µg/mL (≈ 30.5 to 365 µM)	1 to 3.5 µg/mL (≈ 2.44 to 8.53 µM)	3.5 to 12.5 µg/mL (≈ 8.53 to 30.5 µM)	1 to 3.5 µg/mL (≈ 2.44 to 8.53 µM)	12.5 to 150 µg/mL (≈ 30.5 to 365 µM)	12.5 to 150 µg/mL (≈ 30.5 to 365 µM)	12.5 to 150 µg/mL (≈ 30.5 to 365 µM)	1 to 3.5 µg/mL (≈ 2.44 to 8.53 µM)	1 to 3.5 µg/mL (≈ 2.44 to 8.53 µM)
CCc1c(-c2ccc3c(c2)cc(CN2CCCC2C)n3C)[nH]c(=O)c(C(=O)O)c1O (stereo not drawn) [Cpd 173, 5-ethyl-4-hydroxy-6-(1-methyl-2-((2-methylpyrrolidin-1-yl)methyl)-1H-indol-5-yl)-2-oxo-1,2-dihydropyridine-3-carboxylic acid]	< 1 µg/mL	3.5 to 12.5 µg/mL (≈ 8.55 to 30.5 µM)	12.5 to 150 µg/mL (≈ 30.5 to 366 µM)	12.5 to 150 µg/mL (≈ 30.5 to 366 µM)	1 to 3.5 µg/mL (≈ 2.44 to 8.55 µM)	1 to 3.5 µg/mL (≈ 2.44 to 8.55 µM)	< 1 µg/mL	< 1 µg/mL	< 1 µg/mL	12.5 to 150 µg/mL (≈ 30.5 to 366 µM)	3.5 to 12.5 µg/mL (≈ 8.55 to 30.5 µM)	12.5 to 150 µg/mL (≈ 30.5 to 366 µM)	< 1 µg/mL	3.5 to 12.5 µg/mL (≈ 8.55 to 30.5 µM)
CCc1c(-c2ccc3c(c2)cc(CN2CC[C@H](N)C2)n3C)[nH]c(=O)c(C(=O)O)c1O [Cpd 180, (S)-6-(2-((3-aminopyrrolidin-1-yl)methyl)-1-methyl-1H-indol-5-yl)-5-ethyl-4-hydroxy-2-oxo-1,2-dihydropyridine-3-carboxylic acid]	< 1 µg/mL	12.5 to 150 µg/mL (≈ 30.5 to 365 µM)	12.5 to 150 µg/mL (≈ 30.5 to 365 µM)	12.5 to 150 µg/mL (≈ 30.5 to 365 µM)	3.5 to 12.5 µg/mL (≈ 8.53 to 30.5 µM)	12.5 to 150 µg/mL (≈ 30.5 to 365 µM)	1 to 3.5 µg/mL (≈ 2.44 to 8.53 µM)	3.5 to 12.5 µg/mL (≈ 8.53 to 30.5 µM)	1 to 3.5 µg/mL (≈ 2.44 to 8.53 µM)	12.5 to 150 µg/mL (≈ 30.5 to 365 µM)	3.5 to 12.5 µg/mL (≈ 8.53 to 30.5 µM)	12.5 to 150 µg/mL (≈ 30.5 to 365 µM)	1 to 3.5 µg/mL (≈ 2.44 to 8.53 µM)	1 to 3.5 µg/mL (≈ 2.44 to 8.53 µM)
CCc1c(-c2ccc3c(c2)cc(CN2CCC(NC)C2)n3C)[nH]c(=O)c(C(=O)O)c1O (stereo not drawn) [Cpd 181, 5-ethyl-4-hydroxy-6-(1-methyl-2-((3-(methylamino)pyrrolidin-1-yl)methyl)-1H-indol-5-yl)-2-oxo-1,2-dihydropyridine-3-carboxylic acid]	< 1 µg/mL	12.5 to 150 µg/mL (≈ 29.4 to 353 µM)	12.5 to 150 µg/mL (≈ 29.4 to 353 µM)	12.5 to 150 µg/mL (≈ 29.4 to 353 µM)	1 to 3.5 µg/mL (≈ 2.36 to 8.24 µM)	3.5 to 12.5 µg/mL (≈ 8.24 to 29.4 µM)	1 to 3.5 µg/mL (≈ 2.36 to 8.24 µM)	1 to 3.5 µg/mL (≈ 2.36 to 8.24 µM)	1 to 3.5 µg/mL (≈ 2.36 to 8.24 µM)	12.5 to 150 µg/mL (≈ 29.4 to 353 µM)	12.5 to 150 µg/mL (≈ 29.4 to 353 µM)	12.5 to 150 µg/mL (≈ 29.4 to 353 µM)	1 to 3.5 µg/mL (≈ 2.36 to 8.24 µM)	1 to 3.5 µg/mL (≈ 2.36 to 8.24 µM)
CCc1c(-c2ccc3c(c2)cc(CN2CC4CCCNC4C2)n3C)[nH]c(=O)c(C(=O)O)c1O (stereo not drawn) [Cpd 184, 5-ethyl-4-hydroxy-6-(1-methyl-2-((tetrahydro-1H-pyrrolo[3,4-b]pyridin-6(2H,7H,7aH)-yl)methyl)-1H-indol-5-yl)-2-oxo-1,2-dihydropyridine-3-carboxylic acid]	< 1 µg/mL	12.5 to 150 µg/mL (≈ 27.7 to 333 µM)	12.5 to 150 µg/mL (≈ 27.7 to 333 µM)	12.5 to 150 µg/mL (≈ 27.7 to 333 µM)	1 to 3.5 µg/mL (≈ 2.22 to 7.77 µM)	3.5 to 12.5 µg/mL (≈ 7.77 to 27.7 µM)	1 to 3.5 µg/mL (≈ 2.22 to 7.77 µM)	1 to 3.5 µg/mL (≈ 2.22 to 7.77 µM)	1 to 3.5 µg/mL (≈ 2.22 to 7.77 µM)	12.5 to 150 µg/mL (≈ 27.7 to 333 µM)	3.5 to 12.5 µg/mL (≈ 7.77 to 27.7 µM)	12.5 to 150 µg/mL (≈ 27.7 to 333 µM)	< 1 µg/mL	1 to 3.5 µg/mL (≈ 2.22 to 7.77 µM)
